These compounds were tested against T1, NTCP (Homo sapiens, UniProt Q14973) (assay: [3H]-TCA uptake assay (NTCP inhibition)). Conditions: IC50, given as a range, marked * (asterisk not explained).
T1 sequence (Q14973 1-349): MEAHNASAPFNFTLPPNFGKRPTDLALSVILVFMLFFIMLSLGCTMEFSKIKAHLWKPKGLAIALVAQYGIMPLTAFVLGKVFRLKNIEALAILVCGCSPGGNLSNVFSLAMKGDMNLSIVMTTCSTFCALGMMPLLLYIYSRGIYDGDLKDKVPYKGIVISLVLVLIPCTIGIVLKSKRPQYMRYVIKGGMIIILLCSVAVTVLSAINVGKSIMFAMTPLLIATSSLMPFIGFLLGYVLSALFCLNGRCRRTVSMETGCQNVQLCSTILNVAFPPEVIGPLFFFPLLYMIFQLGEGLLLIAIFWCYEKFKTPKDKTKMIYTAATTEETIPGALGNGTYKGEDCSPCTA
Type: cell-based
Summary of the method: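 Read-out is liquid scintillation counting of Triton X-100 lysates after 15 min, 37° C uptake of 1 μM [3H]-taurocholate in Na+ Ringer's buffer (145 mM Na). Beforehand, PTH and HepG2-NTCP cells had 24 h in PMM for NTCP induction and 2 h of compound or DMSO treatment.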
Work on CCC1NC(=O)C(C2OC(Oc3cccc(OCc4ccc(F)cc4)c3)CC2C)N(C)C(=O)C(C(C)C)N(C)C(=O)C(CC(C)C)N(C)C(=O)C(CC(C)C)N(C)C(=O)C(C)NC(=O)C(C)NC(=O)C(CC(C)C)N(C)C(=O)C(C(C)C)NC(=O)C(CC(C)C)N(C)C(=O)CN(C)C1=O (stereo not shown) [Compound 21A-o] yielded an IC50 of 1000 to 100000 nM. CCC1NC(=O)C(C2OC(Oc3cccc(O)c3)CC2C)N(C)C(=O)C(C(C)C)N(C)C(=O)C(CC(C)C)N(C)C(=O)C(CC(C)C)N(C)C(=O)C(C)NC(=O)C(C)NC(=O)C(CC(C)C)N(C)C(=O)C(C(C)C)NC(=O)C(CC(C)C)N(C)C(=O)CN(C)C1=O (stereo not shown) [Compound 25A-o] was tested, and the IC50 was 1000 to 100000 nM. Work on CCC1NC(=O)C(C2OC(Oc3ccc(OC)cc3)CC2C)N(C)C(=O)C(C(C)C)N(C)C(=O)C(CC(C)C)N(C)C(=O)C(CC(C)C)N(C)C(=O)C(C)NC(=O)C(C)NC(=O)C(CC(C)C)N(C)C(=O)C(C(C)C)NC(=O)C(CC(C)C)N(C)C(=O)CN(C)C1=O (stereo not shown) [Compound 26A-o] yielded an IC50 of 1000 to 100000 nM. CCOc1ccc(OC2CC(C)C(C3C(=O)NC(CC)C(=O)N(C)CC(=O)N(C)C(CC(C)C)C(=O)NC(C(C)C)C(=O)N(C)C(CC(C)C)C(=O)NC(C)C(=O)NC(C)C(=O)N(C)C(CC(C)C)C(=O)N(C)C(CC(C)C)C(=O)N(C)C(C(C)C)C(=O)N3C)O2)cc1 (stereo not shown) [Compound 27A-o] was tested, and the IC50 was 1000 to 100000 nM. Compound CCC1NC(=O)C(C2OC(Oc3cccc(OC)c3)CC2C)N(C)C(=O)C(C(C)C)N(C)C(=O)C(CC(C)C)N(C)C(=O)C(CC(C)C)N(C)C(=O)C(C)NC(=O)C(C)NC(=O)C(CC(C)C)N(C)C(=O)C(C(C)C)NC(=O)C(CC(C)C)N(C)C(=O)CN(C)C1=O (stereo not shown) [Compound 28A-o] has an IC50 of 1000 to 100000 nM. CCOc1cccc(OC2CC(C)C(C3C(=O)NC(CC)C(=O)N(C)CC(=O)N(C)C(CC(C)C)C(=O)NC(C(C)C)C(=O)N(C)C(CC(C)C)C(=O)NC(C)C(=O)NC(C)C(=O)N(C)C(CC(C)C)C(=O)N(C)C(CC(C)C)C(=O)N(C)C(C(C)C)C(=O)N3C)O2)c1 (stereo not shown) [Compound 29A-o] gave an IC50 of 1000 to 100000 nM. Work on CCC1NC(=O)C(C2OC(Oc3cccc(OC(C)C)c3)CC2C)N(C)C(=O)C(C(C)C)N(C)C(=O)C(CC(C)C)N(C)C(=O)C(CC(C)C)N(C)C(=O)C(C)NC(=O)C(C)NC(=O)C(CC(C)C)N(C)C(=O)C(C(C)C)NC(=O)C(CC(C)C)N(C)C(=O)CN(C)C1=O (stereo not shown) [Compound 30A-6] yielded an IC50 of 1000 to 100000 nM. For CCCOc1cccc(OC2CC(C)C(C3C(=O)NC(CC)C(=O)N(C)CC(=O)N(C)C(CC(C)C)C(=O)NC(C(C)C)C(=O)N(C)C(CC(C)C)C(=O)NC(C)C(=O)NC(C)C(=O)N(C)C(CC(C)C)C(=O)N(C)C(CC(C)C)C(=O)N(C)C(C(C)C)C(=O)N3C)O2)c1 (stereo not shown) [Compound 31A-o], the IC50 was 1000 to 100000 nM.

Same assay, conditions: given as a range, marked * (asterisk not explained)
CCC1NC(=O)C(C2OC(Oc3cccc(OCc4ccc(F)c(Cl)c4)c3)CC2C)N(C)C(=O)C(C(C)C)N(C)C(=O)C(CC(C)C)N(C)C(=O)C(CC(C)C)N(C)C(=O)C(C)NC(=O)C(C)NC(=O)C(CC(C)C)N(C)C(=O)C(C(C)C)NC(=O)C(CC(C)C)N(C)C(=O)CN(C)C1=O (stereo not shown) [Compound 22A-o] gave an IC50 of 1000 to 100000 nM. In the case of CCC1NC(=O)C(C2OC(Oc3cccc(OCc4ccc(F)cc4Cl)c3)CC2C)N(C)C(=O)C(C(C)C)N(C)C(=O)C(CC(C)C)N(C)C(=O)C(CC(C)C)N(C)C(=O)C(C)NC(=O)C(C)NC(=O)C(CC(C)C)N(C)C(=O)C(C(C)C)NC(=O)C(CC(C)C)N(C)C(=O)CN(C)C1=O (stereo not shown) [Compound 23A-o], the IC50 is reported as 1000 to 100000 nM. CCC1NC(=O)C(C2OC(Oc3cccc(OCc4ccc(F)cc4C)c3)CC2C)N(C)C(=O)C(C(C)C)N(C)C(=O)C(CC(C)C)N(C)C(=O)C(CC(C)C)N(C)C(=O)C(C)NC(=O)C(C)NC(=O)C(CC(C)C)N(C)C(=O)C(C(C)C)NC(=O)C(CC(C)C)N(C)C(=O)CN(C)C1=O (stereo not shown) [Compound 24A-o] showed an IC50 of 1000 to 100000 nM.

Same assay, conditions: given as a range; assay not given
CCC1NC(=O)C(C2OC(Sc3cccc(OCc4ccc(F)cc4)c3)CC2C)N(C)C(=O)C(C(C)C)N(C)C(=O)C(CC(C)C)N(C)C(=O)C(CC(C)C)N(C)C(=O)C(C)NC(=O)C(C)NC(=O)C(CC(C)C)N(C)C(=O)C(C(C)C)NC(=O)C(CC(C)C)N(C)C(=O)CN(C)C1=O [Compound 21A, [2-((2R,3R)-5-(3-(4-fluorobenzyloxy)phenylthio)-3-methyltetrahydrofuran-2-yl)-2-(methylamino)acetic acid]^1-cyclosporin A] was tested, and the IC50 was 1 to 1000 nM. Work on CCC1NC(=O)C(C2OC(Sc3cccc(OCc4ccc(F)c(Cl)c4)c3)CC2C)N(C)C(=O)C(C(C)C)N(C)C(=O)C(CC(C)C)N(C)C(=O)C(CC(C)C)N(C)C(=O)C(C)NC(=O)C(C)NC(=O)C(CC(C)C)N(C)C(=O)C(C(C)C)NC(=O)C(CC(C)C)N(C)C(=O)CN(C)C1=O [Compound 22A, [2-((2R,3R)-5-(3-(3-chloro-4-fluorobenzyloxy)phenylthio)-3-methyltetrahydrofuran-2-yl)-2-(methylamino)acetic acid]^1-cyclosporin A] yielded an IC50 of 1 to 1000 nM. With CCC1NC(=O)C(C2OC(Sc3cccc(OCc4ccc(F)cc4C)c3)CC2C)N(C)C(=O)C(C(C)C)N(C)C(=O)C(CC(C)C)N(C)C(=O)C(CC(C)C)N(C)C(=O)C(C)NC(=O)C(C)NC(=O)C(CC(C)C)N(C)C(=O)C(C(C)C)NC(=O)C(CC(C)C)N(C)C(=O)CN(C)C1=O [Compound 24A, [2-((2R,3R)-5-(3-(4-fluoro-2-methylbenzyloxy)phenylthio)-3-methyltetrahydrofuran-2-yl)-2-(methylamino)acetic acid]^1-cyclosporin A] the IC50 was 1 to 1000 nM. CCC1NC(=O)C(C2OC(Sc3cccc(O)c3)CC2C)N(C)C(=O)C(C(C)C)N(C)C(=O)C(CC(C)C)N(C)C(=O)C(CC(C)C)N(C)C(=O)C(C)NC(=O)C(C)NC(=O)C(CC(C)C)N(C)C(=O)C(C(C)C)NC(=O)C(CC(C)C)N(C)C(=O)CN(C)C1=O [Compound 25A, [2-((2R,3R)-5-(3-hydroxyphenylthio)-3-methyltetrahydrofuran-2-yl)-2-(methylamino)acetic acid]^1-cyclosporine A] showed an IC50 of 1 to 1000 nM. CCC1NC(=O)C(C2OC(Sc3ccc(OC)cc3)CC2C)N(C)C(=O)C(C(C)C)N(C)C(=O)C(CC(C)C)N(C)C(=O)C(CC(C)C)N(C)C(=O)C(C)NC(=O)C(C)NC(=O)C(CC(C)C)N(C)C(=O)C(C(C)C)NC(=O)C(CC(C)C)N(C)C(=O)CN(C)C1=O [Compound 26A, [2-((2R,3R)-5-(4-methoxyphenylthio)-3-methyltetrahydrofuran-2-yl)-2-(methylamino)acetic acid]^1-cyclosporin A] gave an IC50 of 1 to 1000 nM. CCOc1ccc(SC2CC(C)C(C3C(=O)NC(CC)C(=O)N(C)CC(=O)N(C)C(CC(C)C)C(=O)NC(C(C)C)C(=O)N(C)C(CC(C)C)C(=O)NC(C)C(=O)NC(C)C(=O)N(C)C(CC(C)C)C(=O)N(C)C(CC(C)C)C(=O)N(C)C(C(C)C)C(=O)N3C)O2)cc1 [Compound 27A, [2-((2R,3R)-5-(4-ethoxyphenylthio)-3-methyltetrahydrofuran-2-yl)-2-(methylamino)acetic acid]^1-cyclosporin A] was tested, and the IC50 was 1 to 1000 nM. Work on CCC1NC(=O)C(C2OC(Sc3cccc(OC)c3)CC2C)N(C)C(=O)C(C(C)C)N(C)C(=O)C(CC(C)C)N(C)C(=O)C(CC(C)C)N(C)C(=O)C(C)NC(=O)C(C)NC(=O)C(CC(C)C)N(C)C(=O)C(C(C)C)NC(=O)C(CC(C)C)N(C)C(=O)CN(C)C1=O [Compound 28A, [2-((2R,3R)-5-(3-methoxyphenylthio)-3-methyltetrahydrofuran-2-yl)-2-(methylamino)acetic acid]^1-cyclosporin A] yielded an IC50 of 1 to 1000 nM. CCOc1cccc(SC2CC(C)C(C3C(=O)NC(CC)C(=O)N(C)CC(=O)N(C)C(CC(C)C)C(=O)NC(C(C)C)C(=O)N(C)C(CC(C)C)C(=O)NC(C)C(=O)NC(C)C(=O)N(C)C(CC(C)C)C(=O)N(C)C(CC(C)C)C(=O)N(C)C(C(C)C)C(=O)N3C)O2)c1 [Compound 29A, [2-((2R,3R)-5-(3-ethoxyphenylthio)-3-methyltetrahydrofuran-2-yl)-2-(methylamino)acetic acid]^1-cyclosporin A] gave an IC50 of 1 to 1000 nM. Work on CCC1NC(=O)C(C2OC(Sc3cccc(OC(C)C)c3)CC2C)N(C)C(=O)C(C(C)C)N(C)C(=O)C(CC(C)C)N(C)C(=O)C(CC(C)C)N(C)C(=O)C(C)NC(=O)C(C)NC(=O)C(CC(C)C)N(C)C(=O)C(C(C)C)NC(=O)C(CC(C)C)N(C)C(=O)CN(C)C1=O [Compound 30A, [2-((2R,3R)-5-(3-isopropoxyphenylthio)-3-methyltetrahydrofuran-2-yl)-2-(methylamino)acetic acid]^1-cyclosporin] yielded an IC50 of 1 to 1000 nM. In the case of CCCOc1cccc(SC2CC(C)C(C3C(=O)NC(CC)C(=O)N(C)CC(=O)N(C)C(CC(C)C)C(=O)NC(C(C)C)C(=O)N(C)C(CC(C)C)C(=O)NC(C)C(=O)NC(C)C(=O)N(C)C(CC(C)C)C(=O)N(C)C(CC(C)C)C(=O)N(C)C(C(C)C)C(=O)N3C)O2)c1 [Compound 31A, [2-((2R,3R)-3-methyl-5-(3-propoxyphenylthio)tetrahydrofuran-2-yl)-2-(methylamino)acetic acid]^1-cyclosporin A], the IC50 is reported as 1 to 1000 nM.

Same assay, conditions: given as a range; assay not given; read-out: IC50
For CC[C@@H]1NC(=O)[C@H]([C@@H]2OC(Sc3cccc(OCc4ccc(F)cc4Cl)c3)C[C@H]2C)N(C)C(=O)[C@H](C(C)C)N(C)C(=O)[C@H](CC(C)C)N(C)C(=O)[C@H](CC(C)C)N(C)C(=O)[C@@H](C)NC(=O)[C@H](C)NC(=O)[C@H](CC(C)C)N(C)C(=O)[C@H](C(C)C)NC(=O)[C@H](CC(C)C)N(C)C(=O)CN(C)C1=O (stereo partly drawn) [Compound 23A, [2-((2R,3R)-5-(3-(2-chloro-4-fluorobenzyloxy)phenylthio)-3-methyltetrahydrofuran-2-yl)-2-(methylamino)acetic acid]^1-cyclosporin A], the IC50 was 1 to 1000 nM.
